Series [1] in a line: Liver microsomal stability in vitro, cynomolgus monkey. Format: in vitro ADME. The settings on record: for half-life at 1 μM: pH 7.4, cynomolgus monkey liver microsomes 0.5 mg protein/mL, 1 μM test compound, 37° C., read-out: Cynomolgus monkey T1/2. As to the method:
(§1) Evaluation of in vitro liver microsomal stability of the compound of the present disclosure was tested by the following method:
(§2) Buffer: 100 mM potassium phosphate buffer, pH 7.4; […] MgCl2.
(§3) Liver microsomes: human liver microsomes, Corning Cat No. 452117; Rat liver microsomes, Xenotech Cat No. R1000; Mouse liver microsomes, Xenotech Cat No. M1000; Dog liver microsomes, Xenotech Cat No. D1000; Liver microsomes of cynomolgus monkey, Corning Cat No. 452413, the final concentration was 0.5 mg protein/mL.
(§4) 1. Intermediate solution: 5 μL of compound or control in stock solution (10 mM) was diluted with 495 μL of methanol (concentration: 100 μM, 99% MeOH).
(§5) 2. Operating solution: the intermediate solution was diluted […] with 450 μL 100 mM potassium phosphate buffer (concentration: 10 μM, 9.9% MeOH).
(§6) 1. 10 μL of compound or control solution per well was added to all plates (T0, T5, T10, T20, T30, T60, NCF60) except matrix blank.
(§7) 2. Microsome solution was distributed to 96-well plates according to platemap for standby, 680 μL per well, and the mixture of microsome solution and the compound was incubated at 37° C. for about 10 minutes.
(§8) 4. After preheating, NADPH regeneration system was distributed to 96-well plate, 90 μL per well, for standby according to plate map, which was added to each plate to start the reaction, 10 μL per well. The final concentration of each component in the incubation medium includes: 0.5 mg protein/mL microsome, 1 μM test compound, […], 0.99% methanol and 0.01% DMSO.
(§9) 6. The above-prepared stop solution (4° C. cooling) was added to stop the reaction, 300 μL per well.
(§10) 9. During centrifugation, eight new 96-well plates were loaded with 300 μL of HPLC water, and then 100 μL of supernatant was transferred for mixing, followed by LC/MS/MS detection.
(§11) 10. Data analysis: The peak area of the corresponding compound and internal standard was detected by LC-MS/MS, and the T1/2 of the compound was calculated by the following formula: […]

A further series has as its target T1, CYP2C19 (Homo sapiens, UniProt P33261).
T1 construct: from tissue; host or cells: human liver microsomes (HLM)
Kind of series: Inhibition of human liver microsomal CYP450 enzymes, CYP2C19. The following applies: human liver microsomes, substrate S-Mephenytoin 35 μM; Reference = omeprazole; read-out: IC50 2C19. Format: in vitro ADME. As to the method:
(§12) The inhibitory effects of the compound of the present disclosure on the CYP450 enzymes of six human subtypes were determined by the following experimental method:
(§13) Reference compounds of each subtype: CYP1A2: α-naphthoflavone; CYP2C9: sulfaphenazole; CYP2C19: omeprazole; CYP3A4: ketoconazole; CYP2D6: quinidine.
(§14) Substrate concentration: CYP1A2: Phenacetin at 30 μM; CYP2C9: Diclofenac at 10 μM; CYP2C19: S-Mephenytoin at 35 μM; CYP3A4: Midazolam at 5 μM and Testosterone at 80 μM; CYP2D6: Bufuralol at 10 μM.
(§15) 6. 0.2 mg/mL of HLM was added to the test wells, 400 μL per well, and then the gradient diluted 400× test compound was added to the corresponding wells.
(§16) 7. 0.2 mg/mL of HLM was added to the test wells, 200 μL per well, and then the gradient-diluted reference inhibitor was added to the corresponding wells. Steps 6 and 7 needed to be performed on ice.
(§17) 8.1. 30 μL of test compound and reference compound were mixed in 0.2 mg/mL of HLM solution (see steps 6 and 7).
(§18) 8.2. 15 μL of 4× substrate solution (see step 4) was added.
(§19) 10. Preheated 8 mM of NADPH solution was added to the 96-well test plate (see step 3) to initiate the reaction, 15 μL per well.
(§20) 11. The test plate was incubated at 37° C.: 3A4 for 5 minutes, each of 1A2, 2C9 and 2D6 for 10 minutes, and 2C19 for 45 minutes.
(§21) 12. ACN containing internal reference was added to stop the reaction, 120 μL per well.
14. […]

A short description of series [2]: Liver microsomal stability in vitro, dog. Format: in vitro ADME. The following applies: for half-life at 1 μM: pH 7.4, dog liver microsomes 0.5 mg protein/mL, 1 μM test compound, 37° C., read-out: Dog T1/2. How it is done: as §1, §2, §3, §4, §5, §6, §7, §8, §9, §10, §11
A short description of series [3]: Pharmacokinetic study in rats. How it is done:
SD rats were used as test animals, and the drug concentrations in plasma at different times after intravenous and intragastric administration of the compounds of examples were determined by LC/MS/MS method(s) to study the pharmacokinetics of the compound in the present disclosure in rats
Healthy adult male SD (Sprague-Dawley) rats, 3 animals per test compound, 6-9 weeks old, weighing 250±50 g, were purchased from Shanghai SLAC Laboratory Animal Co., Ltd.
The appropriate amount of sample was weighed out, 0.5% Methocel/2% tween 80 was added to the final volume, and 2 mg/mL was prepared for intragastric administration.
Each 3 male SD rats of each test compound were taken by intragastric administration at a dosage of 10 mg/kg after fasting overnight.
Blood samples of each animal were collected at different time points 0.083-24 h from jugular vein puncture after administration, K2-EDTA anticoagulation, centrifugation, and blood plasma were collected, frozen at −70° C. until LC/MS/MS analysis.

Series [4] can be described thus: Liver microsomal stability in vitro, human. The series is classed as in vitro ADME. The following applies: for half-life at 1 μM: pH 7.4, human liver microsomes 0.5 mg protein/mL, 1 μM test compound, 37° C., read-out: Human T1/2. As to the method: as §1, §2, §3, §4, §5, §6, §7, §8, §9, §10, §11
The target in another series is T2, CYP2C9 (Homo sapiens, UniProt P11712).
T2 construct: from tissue; host or cells: human liver microsomes (HLM)
Briefly: Inhibition of human liver microsomal CYP450 enzymes, CYP2C9. The series is classed as in vitro ADME. The settings on record: human liver microsomes, substrate Diclofenac 10 μM; Reference = sulfaphenazole; read-out: IC50 2C9. As to the method:
as §12, §13, §14, §15, §16, §17, §18, §19, §20, §21
14. […]

In a further series the target is T3, CYP2D6 (Homo sapiens, UniProt P10635).
T3 construct: from tissue; host or cells: human liver microsomes (HLM)
Briefly: Inhibition of human liver microsomal CYP450 enzymes, CYP2D6. The series is classed as in vitro ADME. The settings on record: human liver microsomes, substrate Bufuralol 10 μM; Reference = quinidine; read-out: IC50 2D6. How it is done: as §12, §13, §14, §15, §16, §17, §18, §19, §20, §21
14. […]

The mark [5] stands for this setting: SD rats, table head: Dose PO (10 mg/kg).
The mark [6] stands for this setting: male, Sprague-Dawley, rat, plasma, po, 10 mg/kg, SD rats, PO 10 mg/kg.
The mark [7] stands for this setting: male, Sprague-Dawley, rat, in vivo, po, 10 mg/kg.

T2 sequence (P11712 whole entry): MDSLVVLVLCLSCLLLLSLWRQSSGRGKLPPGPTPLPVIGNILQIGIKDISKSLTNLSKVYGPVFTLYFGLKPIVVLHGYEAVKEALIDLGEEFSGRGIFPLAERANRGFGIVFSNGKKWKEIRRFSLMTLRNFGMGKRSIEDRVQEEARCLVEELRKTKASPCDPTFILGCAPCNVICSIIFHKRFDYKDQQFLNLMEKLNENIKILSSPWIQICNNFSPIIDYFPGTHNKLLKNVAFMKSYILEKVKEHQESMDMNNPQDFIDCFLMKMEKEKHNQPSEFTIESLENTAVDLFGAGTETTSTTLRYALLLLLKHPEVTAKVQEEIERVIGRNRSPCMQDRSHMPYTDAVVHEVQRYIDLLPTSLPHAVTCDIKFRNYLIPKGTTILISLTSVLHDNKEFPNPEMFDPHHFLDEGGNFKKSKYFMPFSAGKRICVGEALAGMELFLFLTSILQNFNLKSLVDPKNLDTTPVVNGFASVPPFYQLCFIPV
T3 sequence (P10635 whole entry): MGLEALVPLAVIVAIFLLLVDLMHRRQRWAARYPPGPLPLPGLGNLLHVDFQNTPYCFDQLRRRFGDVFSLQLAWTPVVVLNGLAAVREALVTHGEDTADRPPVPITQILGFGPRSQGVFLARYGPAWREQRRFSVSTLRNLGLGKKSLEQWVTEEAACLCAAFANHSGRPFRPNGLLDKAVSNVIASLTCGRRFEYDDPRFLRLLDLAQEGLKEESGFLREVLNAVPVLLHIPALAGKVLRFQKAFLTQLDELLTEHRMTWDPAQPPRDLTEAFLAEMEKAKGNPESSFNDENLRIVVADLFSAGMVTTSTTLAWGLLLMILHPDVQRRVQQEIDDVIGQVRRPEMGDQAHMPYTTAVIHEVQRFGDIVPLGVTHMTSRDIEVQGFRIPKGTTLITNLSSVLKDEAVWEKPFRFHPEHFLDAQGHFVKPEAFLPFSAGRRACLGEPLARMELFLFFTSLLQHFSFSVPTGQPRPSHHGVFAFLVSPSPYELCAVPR
T1 sequence (P33261 whole entry): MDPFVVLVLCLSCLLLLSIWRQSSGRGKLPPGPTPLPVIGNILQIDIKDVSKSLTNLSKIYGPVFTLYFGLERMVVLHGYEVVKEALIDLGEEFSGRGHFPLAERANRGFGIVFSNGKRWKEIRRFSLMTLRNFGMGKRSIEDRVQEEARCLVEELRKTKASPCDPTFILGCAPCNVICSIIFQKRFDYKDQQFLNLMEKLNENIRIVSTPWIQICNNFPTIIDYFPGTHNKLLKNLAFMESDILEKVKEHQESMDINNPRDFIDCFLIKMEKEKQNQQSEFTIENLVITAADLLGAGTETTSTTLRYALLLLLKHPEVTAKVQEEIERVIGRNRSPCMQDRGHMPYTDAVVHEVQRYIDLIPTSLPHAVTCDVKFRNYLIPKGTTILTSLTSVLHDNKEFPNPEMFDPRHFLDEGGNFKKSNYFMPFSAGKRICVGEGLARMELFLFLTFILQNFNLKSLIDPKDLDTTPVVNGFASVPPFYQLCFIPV

Take `NC(=O)c1cccc2cn(-c3ccc([C@@H]4CCCNC4)cc3)nc12` [Niraparib, reference compound]: the half-life at 1 μM was 0.967 h in series [1], 0.377 h in series [2] and over 2.42 h in series [4]. The IC50 on CYP2C19, on CYP2C9 and on CYP2D6 was over 10 µM throughout. The F in series [3] (SD rats, PO 10 mg/kg) is recorded as 65.0%. In series [3] (setting [5]), this compound showed a CL of 28.7 mL/min/kg. Besides, the Vdss in series [3] (setting [5]) was determined as 8.18 L/kg. In series [3] (setting [6]), this compound gave an exposure (AUC) of 4540 ng·h/mL. The compound also had a Cmax in series [3] (male, Sprague-Dawley, rat, plasma, po, 10 mg/kg, Cmax, SD rats, PO 10 mg/kg) of 509 ng/mL. The compound further showed an MRT in series [3] (setting [6]) of 8.59 h. This compound had a half-life in series [3] (male, Sprague-Dawley, rat, plasma, po, 10 mg/kg, T1/2, SD rats, PO 10 mg/kg) of 3.4 h.
In the case of `NC(=O)c1cccc2cn(-c3ccc([C@]4(F)CCCNC4)cc3)nc12` (single isomer, unassigned) [Example 23, (R or S)-2-(4-(3-fluoropiperidin-3-yl)phenyl)-2H-indazole-7-carboxamide], in series [1] (cynomolgus monkey liver microsomes), the “metabolic stability in cynomolgus monkey liver microsomes, in words” value is given as “excellent metabolic stability”. For the same compound, the half-life at 1 μM in series [1] was 1.03 h; in series [2], 0.338 h; in series [4], over 2.42 h. In addition, the IC50 on CYP2C19, at CYP2C9 and on CYP2D6 was over 10 µM in each case. For the same compound, in series [2] (dog liver microsomes), the “metabolic stability in dog liver microsomes, in words” value is listed as “excellent metabolic stability”. This compound came in with a F in series [3] (setting [7]) of 49.7%. The same compound gave a T1/2 in series [3] (setting [7]) of 16.0 h. In addition, the AUC in series [3] (setting [7]) was 3060 ng·h/mL. The compound also had an MRT in series [3] (setting [7]) of 7.12 h. For the same compound, the “metabolic stability in human liver microsomes, in words” value in series [4] (human liver microsomes) is listed as “excellent metabolic stability”.

The record behind these values is patent US11072596B2, “Poly(ADP-ribose) polymerase inhibitor, preparation method and use” (SELECTION BIOSCIENCE LLC, priority 2017, dated 2021).
